Residues, ends and D or L forms follow the SMILES beside them. *: point of attachment. OiPr = CC(C)O*

Usually melting point stands for the temperature of the solid-liquid transition. Take `CN1CCN(c2ccccc2C=C2C(=O)Nc3ccc(Cl)cc32)CC1`: the melting point is 235 to 237 °C.
The same measure for `CCCCS(=O)(=O)OCCN(CCBr)c1c(C(=O)NCCOP(=O)(O)O)cc([N+](=O)[O-])cc1[N+](=O)[O-]`: 123 to 125 °C; for `CCCn1c(=O)c2c(NC)n(C(C)=O)nc2n(Cc2cccc(Cl)c2)c1=O`: 169 to 171 °C; for `Cc1cnc2c(C(=O)NC=NO)c(Cl)ccc2c1`: 235 to 238 °C.
Next, `CCOC(=O)c1nc(S)n(-c2ccccc2)c1C(=O)OCC`: 145 to 146 °C.
Compound `CCOC(=O)Cc1cc(OC)c2c(c1)C1(O)C(=O)c3ccccc3C1(O)O2` (stereo not drawn) returned a melting point of 133 to 136 °C.
Regarding `CCN(CC)c1nc(CO)cs1`, the melting point lay in the range of 67 to 69 °C.
`N#CNC(=NCCN1CCC(C(=O)c2ccc(F)cc2)CC1)N1CCCCC1` came in with a melting point of 139 to 141 °C.
`COc1cc(OCc2ccccn2)ccc1/C=C/c1cc(/C=C/c2ccc3[nH]cnc3c2)n[nH]1` yielded a melting point of 135 to 142 °C.
`CCN1CCCC1CNC(=O)Cc1ccc(-c2ccc3c(=O)c(C(=O)NC)c(C)n(CC)c3n2)s1` (stereo not drawn) displayed a melting point of 250 °C.
Next, `CC(C)OC(=O)C(C)NC(=O)C(CC(=O)O)NC(=O)C(C)N` (stereo not drawn) (H-Ala-Asp-Ala-OiPr; configuration not given here): 219 to 221 °C; `Cc1cc(F)ccc1-c1nc(OCC(N)S(C)(=O)=O)nc2c1ccc(=O)n2-c1c(F)cccc1F` (stereo not drawn): 95 to 99 °C; `N=C(NOC(=O)c1ccccc1)c1ccc(NC(=O)CCCC(=O)Nc2ccc(C(=N)NOC(=O)c3ccccc3)cc2)cc1`: 253 to 255 °C.
Next, `COC(=O)NCc1cccc(Br)c1`: 41 to 44 °C; `COc1cc(OC)c2c(=O)cc(-c3n[nH]c4ccccc34)oc2c1`: 253 to 255 °C.
Next, `CN(c1cccc2cc(C3=NCC(CC(=O)O)S3)[nH]c12)S(=O)(=O)c1nccs1` (stereo not drawn): 121 to 123 °C; `CN(Cc1ccccc1)c1ccccc1C(=O)O`: 86 to 88 °C.
Turning to `CP(C)(=O)OCc1ccccc1`, the melting point fell in the range of 41 to 45 °C.
Take `O=C(O)Cc1ccccc1CBr`: the melting point turned out to be 110 °C.
`CS(=O)(=O)c1ccc(-c2nc(C(F)(F)F)[nH]c2-c2ccccc2)cc1` came in with a melting point of 228 to 230 °C.
Next, `COc1ccc(Cn2cnc3c(-c4ccco4)nc(OCc4ccccc4)nc32)cc1`: 122 °C; `CCOC(=O)C(C)Cc1ccc(-n2c(C)nn(-c3ccc(C#N)cc3)c2=O)cc1` (stereo not drawn): 124 to 128 °C.
Next, `Cc1cccc2c1C(=O)N1CC[C@H]1c1c(C(=O)OC(C)(C)C)ncn1-2`: 191 to 192 °C; `O=c1[nH]c(Cl)c(Cc2ccccc2)c(=O)n1Cc1ccccc1`: 146 to 148 °C.
The compound `O=C1c2ccccc2C(=O)N1SN1C(=O)c2ccccc2C1=O` yielded a melting point of 301 to 315 °C.
As for `Cc1cc(=O)n(C)c2c1C(=O)CC(c1ccsc1)C2` (stereo not drawn), the melting point was in the range of 156 to 157 °C.
Next, `Nc1ccncc1Oc1ccc2ccccc2c1`: 117 to 118 °C.
Next, `CC1(C(=O)Nc2ccc(-n3nc(C(F)(F)F)cc3C(F)(F)F)cc2)C=CCCC1` (stereo not drawn): 108 to 110 °C.
`ON=Cc1ncc(-c2ccccc2)o1` returned a melting point of 208 to 210 °C.
The same measure for `CCCCCCOc1c(Br)ccc2c(OCCCCCC)c(Br)ccc12`: 41 to 43 °C; for `Cc1ccc(NS(=O)(=O)c2ccccc2)cc1N`: 142 to 144 °C.
With `CCCC1(CCC(C)=O)Cc2cc(CC(=O)O)c(Cl)c(Cl)c2C1=O` (stereo not drawn), the melting point was 137 to 139 °C.
The compound `CCOC(=S)c1c(CC)nc(C)nc1NCCc1ccc(OC)c(OC)c1` displayed a melting point of 52 to 53 °C.
In turn, `C=C(c1cc(F)ccc1OCc1ccc(-c2ccccc2)cc1)n1ccnc1` had a melting point of 97 to 98 °C.
In the case of `CCn1c2ccccc2c2cc3cccc(C=O)c3cc21`, the melting point was 130 to 133 °C.
Next, `CC1Cc2cc(NC(=O)OCc3ccccc3)ccc2N1C(=O)OCc1ccccc1` (stereo not drawn): 107 to 111 °C; `Cc1ccc(-c2ccc(C(=O)Nc3ccc4cc(CN5C(C)(C)CCCC5(C)C)ccc4c3)cc2)cc1`: 235 to 237 °C.
In turn, `CCCCc1nc2c(N)nc3ccc(OCc4ccc(OC(F)(F)F)cc4)cc3c2n1C` had a melting point of 219 to 220 °C.
The same measure for `CC(C)Oc1nc(-n2cccn2)nc(Cl)c1-c1c(F)cc(F)cc1F`: 106 to 107 °C.
As for `CC(=O)Nc1c(C(=O)c2ccccc2)[nH]c2ccc(Br)cc12`, the melting point lay in the range of 192 to 194 °C.
Next, `COc1ccc(Cl)c(Oc2c(CCl)nc(N3CCOCC3)nc2NS(=O)(=O)c2ccc(C(C)C)cn2)c1`: 205 °C.
The same measure for `CCOC(=O)c1c(N2CCN(c3ccccc3)CC2)n[nH]c1C`: 137 to 138 °C.
The compound `CSc1ccc(-c2nc3[nH]nc(N)c3c(=O)n2-c2ccc(C)c(C)c2)cc1` gave a melting point of 263 to 266 °C.
The same measure for `CON=Cc1sc(-c2ccc(O)cc2)c(C)c1-c1ccc(O)cc1`: 219 to 225 °C; for `CCOC(=O)c1cc(Cc2cccc3ccccc23)sc1NCC(C)C`: 57 to 59 °C.
The same measure for `CCOC(=O)C1=C(C)Nc2nc(N3CCOCC3)nc(N3CCOCC3)c2C1c1ccccc1Cl` (stereo not drawn): 241 °C; for `CC(c1cccc(O)c1)N(C)C` (stereo not drawn): 85 to 86 °C; for `Cc1ccc2c(c1)CC(N1CCN(CCN3CCOC3=O)CC1)c1cc(Cl)ccc1S2` (stereo not drawn): 174 to 175 °C.
For the compound `CC(O)(c1ccc(Oc2ccccc2)cc1)C1SCSCS1` (stereo not drawn), the melting point was 70 to 71 °C.
The same measure for `O=C(c1cccs1)c1cnn2c(-c3ccc(F)c(-c4ccc(CO)cc4)c3)ccnc12`: 140 to 145 °C; for `CCCCCCCC[C@H](C)C(=O)Oc1ccc(C(=O)O)cc1`: 92.5 to 96.5 °C; for `O=C1CCC(=O)C(c2ccccc2)N1` (stereo not drawn): 160 to 164 °C.
Next, `Cc1nnc(-c2ccc3ncn(C4CCN(S(C)(=O)=O)CC4)c3c2)o1`: 233 to 234 °C.
Next, `O=C1C(=CN2CCCC2)c2ccccc2N1c1cccc(Cl)c1`: 108 to 112 °C; `CC(C)Oc1cc(OC(C)C)c2c(=O)cc(Sc3ccc(O)cc3)oc2c1`: 234 to 236 °C; `O=c1ccc2cnc(Nc3ccccc3)nc2n1CCCOc1ccccc1`: 175 to 176 °C.
`COc1ccc(NC(=O)N(Cc2ccccc2)Cc2ccccn2)c(NC(=O)c2cc(C(C)(C)C)c(O)c(C(C)(C)C)c2)c1`: the melting point was 165 to 166 °C.
In turn, `Cc1nc2c(s1)CN=C(c1ccccc1Cl)c1cc(Cl)ccc1-2` had a melting point of 162 to 164 °C.
With `CC(C)(C)Cc1c(C(C)(C)C)ssc1=S`, the melting point is 81 °C.
The same measure for `CN(Cc1cc(C(F)(F)F)cc(C(F)(F)F)c1)C(=O)c1c(-c2ccc(C(=O)O)cc2)c2cccnc2c(=O)n1C`: 301 to 302 °C.
Next, `CC(C)(n1cncn1)C(O)(Cn1cncn1)c1ccc(F)cc1F` (stereo not drawn): 155 to 157 °C; `N#CCC(O)(c1ccc(Cl)cc1)c1ccc(-c2ccc(Cl)cc2)cc1` (stereo not drawn): 123 °C; `O=c1ccc(S(=O)(=O)c2cc3ccccc3[nH]2)n[nH]1`: 248 to 249 °C.
The same measure for `CC(C)(C)c1cc(C(C)(C)C)c(N)cc1N`: 153 to 154 °C; for `Cc1nc(N2CCN(CC3CC3)C2=O)sc1C(=O)NCc1ccncn1`: 188 to 191 °C; for `CC(C)Cc1ccc(-c2ncccc2S(=O)(=O)Oc2ccc([N+](=O)[O-])cc2)cc1`: 123 to 124 °C.
Turning to `COC(=O)C1=C(C)NC(C2CCCCC2)=C(S(=O)(=O)N(C)C)C1c1cccc([N+](=O)[O-])c1` (stereo not drawn), the melting point lay in the range of 185 to 188 °C.
The same measure for `O=C(O)C(Cc1ccccc1)c1ccc([N+](=O)[O-])cc1` (stereo not drawn): 163 to 164 °C; for `CC(C)(C)c1cc(SCCOC(=O)c2cc(C(C)(C)C)c(O)c(C(C)(C)C)c2)cc(C(C)(C)C)c1O`: 136 to 139 °C.
The same measure for `Cc1ccc(COC(=O)C(=O)OCc2ccc(C)cc2)cc1`: 100 °C; for `COc1ccc(-c2ccc(Br)cc2[N+](=O)[O-])cc1`: 130 to 131 °C; for `CCCCCCCCCCCCCCCCCCOc1cc(N)cc(C(=O)N(CC(=O)O)CC(=O)O)c1`: 108 to 120 °C.
Next, `O=S(=O)(c1ccc(Cl)c(CBr)c1Cl)N1CC[C@H](O)C1`: 120 °C.
As to `COC(=O)C1(c2ccc([N+](=O)[O-])cc2)CO1` (stereo not drawn), the melting point lay in the range of 78 to 82 °C.
Next, `O=C(NCCCO)OCc1ccccc1`: 47 to 49 °C; `Nc1nc(N)nc(-c2ccc(Oc3ccccc3)cc2)n1`: 198 to 200 °C; `COc1cc(OC)cc(N2CCN(C(=S)Nc3cc4c(nc3OC)CCCC4)CC2)c1`: 160 to 161 °C.
The same measure for `Cc1ccc(-n2cnnc2C(F)(F)F)c(C)c1`: 77 °C.
Regarding `O=C(c1cc(-c2ccccc2)c2sccc2c1)N1CCCCC1`, the melting point was determined as 112 °C.
Next, `CC(=O)NC1Cc2ccc(C(=O)CCCCCl)cc2C1` (stereo not drawn): 106 to 108 °C; `O=C1NC(=O)C(Br)(Cc2ccccc2)C(=O)N1`: 164 to 166 °C.
As for `CC(C)C1CCN(Cc2ccc(COc3cccc4c3CN(C3CCC(=O)NC3=O)C4=O)cc2)CC1` (stereo not drawn), the melting point lay within 124 to 126 °C.
In turn, `CCOc1cc(OC)c(C(=O)C=Cc2ccc(OC)cc2)c(OP(=O)(O)O)c1` came in with a melting point of 85 to 88 °C.
Next, `O=C(N[C@@H](Cc1ccccc1)C(=O)N[C@@H](Cc1cncn1COCc1ccccc1)C(=O)O)C1CCCC1`: 195 to 197 °C; `Cc1ccccc1CC(=NC#N)NC(NC(=O)Cc1ccccc1)C(C)(C)C` (stereo not drawn): 182 to 183 °C.
Next, `CNc1ccc(Cl)cc1C(=N)c1ccccc1`: 93 to 95 °C; `NC(=O)NC(=O)c1ccccc1`: 175 °C.
The same measure for `O=C1NC(=O)c2c1c(-c1ccccc1Cl)cc1oc3cc(CCCCO)c(O)cc3c21`: 256 to 259 °C.
